From patent US5208032A, “Increasing the growth of turkeys using implant of 19-nortestosterone” (Rutgers, The State University of New Jersey, priority 1992, dated 1993)

Key:
[1] = Comparison of effects on growth in intact male and female White Leghorn chickens (Study II, Table 1); type: in vivo; details: for 6-week Body Weight Change / 12-week Body Weight Change / 12-week Shank-Toe Length Change: 1.0-cm implant, vs cholesterol control, (decrease); for 6-week Body Weight / 12-week Body Weight (final) / 12-week Shank-Toe Length: 1.0-cm s.c. implant
Protocol: (§1) The single comb White Leghorn strain (Dekalb XL) of chicken (Avian Services, Frenchtown, N.J.) was used in all studies. Chicks were obtained on the day following hatch and were then maintained in a well ventilated, temperature- and humidity-controlled animal room. Chicks were housed in temperature-controlled (access to small brood chambers--32° to 35° C.), wire-floored, 5-tier brooder batteries (measuring 0.74 W×1.55 L×0.27 H m per tier) until termination of respective studies. A 12 hour light:12 hour dark photoperiod was maintained at all times within the animal room. Feed and water were available ad libitum, with a standard commercial diet (Agway; Bordentown, N.J.), chick starter mash, fed to chicks 1 to 42 days of age, and then from 43 to 84 days, grower mash was provided (manufacturer statement on ration compositions are shown in Table 2).
In all studies, chicks were rank-ordered by weight, wing-banded and distributed into treatment groups of equal body weights at 14 days of age. Excluding Study I, e.g., in which male, female and castrate male comparisons were made, all control groups were implanted with 1.0-cm length cholesterol-filled Silastic polysiloxane implants (i.e., steroid surface exposure of 1.0-cm; actual length was 2.0-cm with 1/2 cm wood dowel plugs placed at each end of implant). The remaining treatment groups consisted of chicks (male, female or castrated male) implanted with either testosterone-, 5-alpha-DHT-, 5-beta-DHT-, estradiol-17-beta-, or 19-nortestosterone-filled Silastic polysiloxane implants with steriod surface exposures of either 0.3, 1.0 or 3.0 cm in length. Steroid implants were prepared by manually packing respective crystalline steroids (Steraloids; Wilton, N.H.) into Silastic Medical Grade tubing (1.57 mm i.d.; Dow Corning) (Smith et al., 1977). The amounts of steroid contained in the implants were as follows (mean±SEM of 20 randomly chosen implants, 5 for each steroid): 2.6±0.2 mg (0.3-cm), 8.9±0.4 mg (1.0-cm), and 29.2±0.7 mg 3.0-cm). At the time of group assignment, implants were placed in the subcutaneous (S.C.) layer of skin behind the neck. Supplemental steroid implants (containing doses of steroids equivalent to those of the initial implants) were implanted at 6 and 10 weeks of age, without removal of prior implants, to ensure adequate androgen replacement with increasing growth. Cage floors and fecal collection trays were checked for 2 consecutive days following each implantation session to ensure completeness of procedure. […] An outline of individual studies along with experimental treatments (i.e., type and dose of steroid) and number of birds per treatment group is given in Table 3.
Body weight and shank-toe length (King, 1969; combined length of metatarsus and longest toe which is an estimate of bone growth) were measured at weekly (or biweekly in Study I) intervals from the beginning through the end of each study. At the termination of studies I (12 weeks of age), III (12 weeks of age), IV (12 weeks of age) and V (6 weeks of age), several organs were excised and immediately weighed at necropsy. Relative tissue weights (percent of final body weight) and body weight minus [comb plus wattle weights] (i.e., final adjusted body weight) were also calculated. Excluding Study I, biweekly blood samples were obtained by venipuncture of the wing vein from the same individual birds for respective treatments. After centrifugation of whole blood, plasma was removed and stored at -20° C. until hormone assays were performed.
^a Steroid treatments entailed the subcutaneous implantation (between
the shoulders) of 1.0 cm length, silastic implants (crystalline steroids
at 2, 6 and 10 weeks of age.)

[2] = Comparison of effect of 19-nortestosterone and 5-alpha-DHT on growth in castrated male White Leghorn chickens (Study V, Table III); type: in vivo; details: for Abdominal Adipose / Final Shank-toe Length / Right Breast Muscle: 6 weeks; for Abdominal Adipose Change / Final 6-week Body Wt. Change / Final Shank-toe Length Change / Right Breast Muscle Change: given unsigned (decrease vs cholesterol); for Final 6-week Body Wt.: minus comb + wattle weight
Protocol: as §1
Excluding Study II, chicks were either castrated (Quigley, 1967) or sham-operated at 13 days of age. Prior to castration, cockerels were deprived of feed and water for 24 hours in order that the intestines may become empty and thus permit better vision into the body cavity and accessibility to testes. Birds were restrained by fastening the wings and legs with leather straps so that sufficient tension was applied to hold the bird well stretched out in a lateral recumbency (on its left side). Next, an approximate 1 inch incision was made midway between the last two ribs and a small rib spreader inserted to hold the ribs about 1/2 inch apart.
Forceps were used to remove both testicles, with the lower or left testicle removed first. The forceps were carefully worked over the testicle and so manipulated as to enclose the entire organ. It was then drawn out with a slight twisting motion. At this step, care was taken not to rupture any of the primary blood vessels. When the rib spreader was removed, and the tension on the bird released (i.e., leg and wing straps removed), the skin and thigh muscles slipped back over the incision thus affording a natural protection. No special care was necessary for surgically manipulated birds other than to puncture "air pockets" which developed under the skin due to air escaping from within the abdominal cavity before the incision between the ribs was healed.
In all studies, chicks were rank-ordered by weight, wing-banded and distributed into treatment groups of equal body weights at 14 days of age. Excluding Study I, e.g., in which male, female and castrate male comparisons were made, all control groups were implanted with 1.0-cm length cholesterol-filled Silastic polysiloxane implants (i.e., steroid surface exposure of 1.0-cm; actual length was 2.0-cm with 1/2 cm wood dowel plugs placed at each end of implant). The remaining treatment groups consisted of chicks (male, female or castrated male) implanted with either testosterone-, 5-alpha-DHT-, 5-beta-DHT-, estradiol-17-beta-, or 19-nortestosterone-filled Silastic polysiloxane implants with steriod surface exposures of either 0.3, 1.0 or 3.0 cm in length. Steroid implants were prepared by manually packing respective crystalline steroids (Steraloids; Wilton, N.H.) into Silastic Medical Grade tubing (1.57 mm i.d.; Dow Corning) (Smith et al., 1977). The amounts of steroid contained in the implants were as follows (mean±SEM of 20 randomly chosen implants, 5 for each steroid): 2.6±0.2 mg (0.3-cm), 8.9±0.4 mg (1.0-cm), and 29.2±0.7 mg 3.0-cm). At the time of group assignment, implants were placed in the subcutaneous (S.C.) layer of skin behind the neck. Supplemental steroid implants (containing doses of steroids equivalent to those of the initial implants) were implanted at 6 and 10 weeks of age, without removal of prior implants, to ensure adequate androgen replacement with increasing growth. Cage floors and fecal collection trays were checked for 2 consecutive days following each implantation session to ensure completeness of procedure. […]

Row | Structure (SMILES) | 6-week Body Weight Change ([1]; intact female) | 12-week Body Weight Change ([1]; intact female) | 12-week Shank-Toe Length Change ([1]; intact female) | 6-week Body Weight ([1]; intact female) | 12-week Body Weight (final) ([1]; intact female) | 12-week Shank-Toe Length ([1]; intact female) | 6-week Body Weight Change ([1]; intact male) | 12-week Body Weight Change ([1]; intact male) | 12-week Shank-Toe Length Change ([1]; intact male) | 6-week Body Weight ([1]; intact male) | 12-week Body Weight (final) ([1]; intact male) | 12-week Shank-Toe Length ([1]; intact male) | Abdominal Adipose ([2]; 1.0-cm implant) | Final Shank-toe Length ([2]; 1.0-cm implant) | Right Breast Muscle ([2]; 1.0-cm implant) | Abdominal Adipose Change ([2]; 1.0-cm implant) | Final 6-week Body Wt. Change ([2]; 1.0-cm implant) | Final Shank-toe Length Change ([2]; 1.0-cm implant) | Right Breast Muscle Change ([2]; 1.0-cm implant) | Final 6-week Body Wt. ([2]; 1.0-cm implant) | further results
1 | C[C@]12CCC(=O)C[C@@H]1CC[C@@H]1[C@@H]2CC[C@]2(C)[C@@H](O)CC[C@@H]12 [5-alpha-DHT, 5-alpha-dihydrotestosterone] | 9.9% | 6.5% | 3.3% | 529 ± 12 g | 1051 ± 15 g | 14.6 ± 0.12 cm | 17.2% | 16.1% | 7.0% | 535 ± 27 g | 1171 ± 50 g | 15.9 ± 0.24 cm | 2.05 ± 0.12 g | 11.4 ± 0.07 cm | 16.3 ± 0.67 g | 33% | 8.6% | 4.2% | 17.7% | 422 ± 10 g | –
2 | C[C@]12CC[C@H]3[C@@H](CCC4=CC(=O)CC[C@@H]43)[C@@H]1CC[C@@H]2O [19-Nortestosterone, 19-nortestosterone] | – | – | – | – | – | – | – | – | – | – | – | – | 0.26 ± 0.08 g | 10.2 ± 0.12 cm | 13.2 ± 0.87 g | 91% | 24.0% | 14.3% | 33.3% | 351 ± 13 g | Abdominal Adipose ([2]; 0.3-cm implant): 1.26 ± 0.19 g; Final Shank-toe Length ([2]; 0.3-cm implant): 10.8 ± 0.13 cm; Right Breast Muscle ([2]; 0.3-cm implant): 13.9 ± 1.1 g; Abdominal Adipose Change ([2]; 0.3-cm implant): 58%; Final 6-week Body Wt. Change ([2]; 0.3-cm implant): 16.9%; Final Shank-toe Length Change ([2]; 0.3-cm implant): 9.2%; Right Breast Muscle Change ([2]; 0.3-cm implant): 29.8%; Final 6-week Body Wt. ([2]; 0.3-cm implant): 384 ± 18 g; Abdominal Adipose ([2]; 3.0-cm implant): 0.58 ± 0.12 g; Final Shank-toe Length ([2]; 3.0-cm implant): 9.8 ± 0.17 cm; Right Breast Muscle ([2]; 3.0-cm implant): 12.0 ± 0.96 g; Abdominal Adipose Change ([2]; 3.0-cm implant): 81%; Final 6-week Body Wt. Change ([2]; 3.0-cm implant): 24.5%; Final Shank-toe Length Change ([2]; 3.0-cm implant): 17.6%; Right Breast Muscle Change ([2]; 3.0-cm implant): 39.4%; Final 6-week Body Wt. ([2]; 3.0-cm implant): 349 ± 19 g
3 | C[C@]12CC[C@H]3[C@@H](CCC4=CC(=O)CC[C@@]43C)[C@@H]1CC[C@@H]2O [Testosterone, testosterone] | 5.8% | 5.1% | 2.6% | 553 ± 11 g | 1067 ± 22 g | 14.7 ± 0.09 cm | 9.4% | 8.6% | 3.1% | 585 ± 13 g | 1275 ± 27 g | 16.5 ± 0.17 cm | – | – | – | – | – | – | – | – | –
